{"source": "paper PMC10338470", "about": "“Phase 1 study of GSK3368715, a type I PRMT inhibitor, in patients with advanced solid tumors” (British Journal of Cancer, 2023)", "origin": "cited, not measured here", "system": "adenoid cystic carcinoma", "parameters": "method as in doi:10.1016/j.annonc.2020.08.651", "conditions": "patients with adenoid cystic carcinoma ref [18]; cited from earlier work", "data": [{"smiles": "Nc1nc2cc(CC[C@H]3C[C@@H](n4ccc5c(N)ncnc54)[C@H](O)[C@@H]3O)ccc2cc1Br", "note": "[JNJ64619178]", "values": [{"measurement": "Partial response rate", "result": 13, "unit": "%"}]}]}
